{
  "source": "patent US11331369B2",
  "about": "“Endoparasitic depsipeptides” (Zoetis Services LLC, priority 2017, dated 2022)",
  "data": [
    {"tested_on": "microfilariae of Dirofilaria immitis", "assay": "Dirofilaria immitis, Microfilaria (DiMF) In vitro Assay", "format": "cell-based", "conditions": "72 h, read-out: DiMF Minimum Effective Dose (MED), approximately 72 hours incubation, microfilariae assessed for survival or paralysis", "units": {"minimal effective concentration": "µM"}, "values": [
      {"smiles": "CCOC(=O)c1cnn(Cc2ccc(C[C@H]3OC(=O)[C@H](CC(C)C)N(C)C(=O)[C@@H](C)OC(=O)[C@H](CC(C)C)N(C)C(=O)[C@@H](Cc4ccccc4)OC(=O)[C@H](CC(C)C)N(C)C(=O)[C@@H](C)OC(=O)[C@H](CC(C)C)N(C)C3=O)cc2)c1", "note": "[Example 2-12, ethyl 1-(4-(((2R,5S,8R,11S,14R,17S,20R,23S)-14-benzyl-5,11,17,23-tetraisobutyl-4,8,10,16,20,22-hexamethyl-3,6,9,12,15,18,21,24-octaoxo-1,7,13,19-tetraoxa-4,10,16,22-tetraazacyclotetracosan-2-yl)methyl)benzyl)-1H-pyrazole-4-carboxylate]", "minimal effective concentration": "0.001 to 0.01"},
      {"smiles": "CC(C)C[C@H]1C(=O)O[C@H](Cc2ccc(Cn3nc(C4CC4)cc3C3CC3)cc2)C(=O)N(C)[C@@H](CC(C)C)C(=O)O[C@H](C)C(=O)N(C)[C@@H](CC(C)C)C(=O)O[C@H](Cc2ccccc2)C(=O)N(C)[C@@H](CC(C)C)C(=O)O[C@H](C)C(=O)N1C", "note": "[Example 2-32, (3S,6R,9S,12R,15S,18R,21S,24R)-6-benzyl-18-(4-((3,5-dicyclopropyl-1H-pyrazol-1-yl)methyl)benzyl)-3,9,15,21-tetraisobutyl-4,10,12,16,22,24-hexamethyl-1,7,13,19-tetraoxa-4,10,16,22-tetraazacyclotetracosan-2,5,8,11,14,17,20,23-octaone]", "minimal effective concentration": "0.01 to 0.1"},
      {"smiles": "CC(C)C[C@H]1C(=O)O[C@H](Cc2ccc(CN3CCS(=O)(=O)c4cccnc43)cc2)C(=O)N(C)[C@@H](CC(C)C)C(=O)O[C@H](C)C(=O)N(C)[C@@H](CC(C)C)C(=O)O[C@H](Cc2ccc(CN3CCS(=O)(=O)c4cccnc43)cc2)C(=O)N(C)[C@@H](CC(C)C)C(=O)O[C@H](C)C(=O)N1C", "note": "[Example 9-62, (3S,6R,9S,12R,15S,18R,21S,24R)-6,18-bis(4-((1,1-dioxido-2,3-dihydro-4H-pyrido[3,2-b][1,4]thiazin-4-yl)methyl)benzyl)-3,9,15,21-tetraisobutyl-4,10,12,16,22,24-hexamethyl-1,7,13,19-tetraoxa-4,10,16,22-tetraazacyclotetracosan-2,5,8,11,14,17,20,23-octaone]", "minimal effective concentration": "0.01 to 0.1"},
      {"smiles": "CC(C)C[C@H]1C(=O)O[C@H](Cc2ccc(Cn3ccc(Cl)cc3=O)cc2)C(=O)N(C)[C@@H](CC(C)C)C(=O)O[C@H](C)C(=O)N(C)[C@@H](CC(C)C)C(=O)O[C@H](Cc2ccc(Cn3ccc(Cl)cc3=O)cc2)C(=O)N(C)[C@@H](CC(C)C)C(=O)O[C@H](C)C(=O)N1C", "note": "[Example 9-21, (3S,6R,9S,12R,15S,18R,21S,24R)-6,18-bis(4-((4-chloro-2-oxopyridin-1 (2H)-yl)methyl)benzyl)-3,9,15,21-tetraisobutyl-4,10,12,16,22,24-hexamethyl-1,7,13,19-tetraoxa-4,10,16,22-tetraazacyclotetracosan-2,5,8,11,14,17,20,23-octaone]", "minimal effective concentration": "0.001 to 0.01"},
      {"smiles": "CC(C)C[C@H]1C(=O)O[C@H](Cc2ccc(Cn3cc(-c4nccs4)cn3)cc2)C(=O)N(C)[C@@H](CC(C)C)C(=O)O[C@H](C)C(=O)N(C)[C@@H](CC(C)C)C(=O)O[C@H](Cc2ccc(Cn3cc(-c4nccs4)cn3)cc2)C(=O)N(C)[C@@H](CC(C)C)C(=O)O[C@H](C)C(=O)N1C", "note": "[Example 1b-13, (3S,6R,9S,12R,15S,18R,21S,24R)-3,9,15,21-tetraisobutyl-4,6,10,16,18,22-hexamethyl-12,24-bis(4-((4-(thiazol-2-yl)-1H-pyrazol-1-yl)methyl)benzyl)-1,7,13,19-tetraoxa-4,10,16,22-tetraazacyclotetracosan-2,5,8,11,14,17,20,23-octaone]", "minimal effective concentration": "0.01 to 0.1"},
      {"smiles": "CC(C)C[C@H]1C(=O)O[C@H](Cc2ccc(Cn3ccc(I)n3)cc2)C(=O)N(C)[C@@H](CC(C)C)C(=O)O[C@H](C)C(=O)N(C)[C@@H](CC(C)C)C(=O)O[C@H](Cc2ccc(Cn3ccc(I)n3)cc2)C(=O)N(C)[C@@H](CC(C)C)C(=O)O[C@H](C)C(=O)N1C", "note": "[Example 1b-64, (3S,6R,9S,12R,15S,18R,21S,24R)-6,18-bis(4-((3-iodo-1H-pyrazol-1-yl)methyl)benzyl)-3,9,15,21-tetraisobutyl-4,10,12,16,22,24-hexamethyl-1,7,13,19-tetraoxa-4,10,16,22-tetraazacyclotetracosan-2,5,8,11,14,17,20,23-octaone]", "minimal effective concentration": "0.01 to 0.1"},
      {"smiles": "CC(C)C[C@H]1C(=O)O[C@H](Cc2ccc(Cn3ccc(-c4ccccc4)n3)cc2)C(=O)N(C)[C@@H](CC(C)C)C(=O)O[C@H](C)C(=O)N(C)[C@@H](CC(C)C)C(=O)O[C@H](Cc2ccccc2)C(=O)N(C)[C@@H](CC(C)C)C(=O)O[C@H](C)C(=O)N1C", "note": "[Example 2-56, (3S,6R,9S,12R,15S,18R,21S,24R)-6-benzyl-3,9,15,21-tetraisobutyl-4,10,12,16,22,24-hexamethyl-18-(4-((3-phenyl-1H-pyrazol-1-yl)methyl)benzyl)-1,7,13,19-tetraoxa-4,10,16,22-tetraazacyclotetracosan-2,5,8,11,14,17,20,23-octaone]", "minimal effective concentration": "0.01 to 0.1"},
      {"smiles": "CC(C)C[C@H]1C(=O)O[C@H](Cc2ccc(Cn3cc(NS(C)(=O)=O)cn3)cc2)C(=O)N(C)[C@@H](CC(C)C)C(=O)O[C@H](C)C(=O)N(C)[C@@H](CC(C)C)C(=O)O[C@H](Cc2ccccc2)C(=O)N(C)[C@@H](CC(C)C)C(=O)O[C@H](C)C(=O)N1C", "note": "[Example 2-36, N-(1-(4-(((2R,5S,8R,11S,14R,17S,20R,23S)-14-benzyl-5,11,17,23-tetraisobutyl-4,8,10,16,20,22-hexamethyl-3,6,9,12,15,18,21,24-octaoxo-1,7,13,19-tetraoxa-4,10,16,22-tetraazacyclotetracosan-2-yl)methyl)benzyl)-1H-pyrazol-4-yl)methanesulfonamide]", "minimal effective concentration": "0.01 to 0.1"},
      {"smiles": "Cc1nn(Cc2ccc(C[C@H]3OC(=O)[C@H](CC(C)C)N(C)C(=O)[C@@H](C)OC(=O)[C@H](CC(C)C)N(C)C(=O)[C@@H](Cc4ccc(Cn5cc(OC(C)C)c(C)n5)cc4)OC(=O)[C@H](CC(C)C)N(C)C(=O)[C@@H](C)OC(=O)[C@H](CC(C)C)N(C)C3=O)cc2)cc1OC(C)C", "note": "[Example 1b-199, (3S,6R,9S,12R,15S,18R,21S,24R)-3,9,15,21-tetraisobutyl-6,18-bis[[4-[(4-isopropoxy-3-methyl-pyrazol-1-yl)methyl]phenyl]methyl]-4,10,12,16,22,24-hexamethyl-1,7,13,19-tetraoxa-4,10,16,22-tetrazacyclotetracosane-2,5,8,11,14,17,20,23-octaone]", "minimal effective concentration": "0.01 to 0.1"},
      {"smiles": "Cc1ccc(OCc2cn(Cc3ccc(C[C@H]4OC(=O)[C@H](CC(C)C)N(C)C(=O)[C@@H](C)OC(=O)[C@H](CC(C)C)N(C)C(=O)[C@@H](Cc5ccccc5)OC(=O)[C@H](CC(C)C)N(C)C(=O)[C@@H](C)OC(=O)[C@H](CC(C)C)N(C)C4=O)cc3)nn2)cc1", "note": "[Example 10-21, (3S,6R,9S,12R,15S,18R,21S,24R)-6-benzyl-3,9,15,21-tetraisobutyl-4,10,12,16,22,24-hexamethyl-18-(4-((4-((p-tolyloxy)methyl)-1H-1,2,3-triazol-1-yl)methyl)benzyl)-1,7,13,19-tetraoxa-4,10,16,22-tetraazacyclotetracosan-2,5,8,11,14,17,20,23-octaone]", "minimal effective concentration": "0.01 to 0.1"},
      {"smiles": "CC(C)C[C@H]1C(=O)O[C@H](Cc2ccc(Cn3cc4c(n3)CCOC4)cc2)C(=O)N(C)[C@@H](CC(C)C)C(=O)O[C@H](C)C(=O)N(C)[C@@H](CC(C)C)C(=O)O[C@H](Cc2ccccc2)C(=O)N(C)[C@@H](CC(C)C)C(=O)O[C@H](C)C(=O)N1C", "note": "[Example 10-28, (3S,6R,9S,12R,15S,18R,21S,24R)-6-benzyl-18-(4-((6,7-dihydropyrano[4,3-c]pyrazol-2(4H)-yl)methyl)benzyl)-3,9,15,21-tetraisobutyl-4,10,12,16,22,24-hexamethyl-1,7,13,19-tetraoxa-4,10,16,22-tetraazacyclotetracosan-2,5,8,11,14,17,20,23-octaone]", "minimal effective concentration": "0.01 to 0.1"},
      {"smiles": "CC(C)C[C@H]1C(=O)O[C@H](C)C(=O)N(C)[C@@H](CC(C)C)C(=O)O[C@H](Cc2ccccc2)C(=O)N(C)[C@@H](CC(C)C)C(=O)O[C@H](C)C(=O)N(C)[C@@H](CC(C)C)C(=O)O[C@@H](Cc2ccc(CN3CCCCC3)cc2)C(=O)N1C", "note": "[Example 10-2, (3S,6R,9S,12R,15S,18S,21S,24R)-6-benzyl-3,9,15,21-tetraisobutyl-4,10,12,16,22,24-hexamethyl-18-(4-(piperidin-1-ylmethyl)benzyl)-1,7,13,19-tetraoxa-4,10,16,22-tetraazacyclotetracosan-2,5,8,11,14,17,20,23-octaone]", "minimal effective concentration": "0.01 to 0.1"},
      {"smiles": "CC(C)C[C@H]1C(=O)O[C@H](Cc2ccc(CN3CCOc4cccnc43)cc2)C(=O)N(C)[C@@H](CC(C)C)C(=O)O[C@H](C)C(=O)N(C)[C@@H](CC(C)C)C(=O)O[C@H](Cc2ccc(CN3CCOc4cccnc43)cc2)C(=O)N(C)[C@@H](CC(C)C)C(=O)O[C@H](C)C(=O)N1C", "note": "[Example 9-64, (3S,6R,9S,12R,15S,18R,21S,24R)-6,18-bis[[4-(2,3-dihydropyrido[3,2-b][1,4]oxazin-4-ylmethyl)phenyl]methyl]-3,9,15,21-tetraisobutyl-4,10,12,16,22,24-hexamethyl-1,7,13,19-tetraoxa-4,10,16,22-tetrazacyclotetracosane-2,5,8,11,14,17,20,23-octaone]", "minimal effective concentration": "0.01 to 0.1"},
      {"smiles": "CCOc1cn(Cc2ccc(C[C@H]3OC(=O)[C@H](CC(C)C)N(C)C(=O)[C@@H](C)OC(=O)[C@H](CC(C)C)N(C)C(=O)[C@@H](Cc4ccc(Cn5cc(OCC)c(C)n5)cc4)OC(=O)[C@H](CC(C)C)N(C)C(=O)[C@@H](C)OC(=O)[C@H](CC(C)C)N(C)C3=O)cc2)nc1C", "note": "[Example 1b-198, (3S,6R,9S,12R,15S,18R,21S,24R)-6,18-bis[[4-[(4-ethoxy-3-methyl-pyrazol-1-yl)methyl]phenyl]methyl]-3,9,15,21-tetraisobutyl-4,10,12,16,22,24-hexamethyl-1,7,13,19-tetraoxa-4,10,16,22-tetrazacyclotetracosane-2,5,8,11,14,17,20,23-octaone]", "minimal effective concentration": "0.01 to 0.1"}
    ]}
  ]
}
